“And” between values parts separate entries of the source, which are not always exact repeats. Equal values may be shown once. “Also recorded” adds a separate entry of the source. Read-outs that look alike come from different tables or passages of the source.
Legend:
[1] = cited from earlier work; for LogK, Mg: Table 1, K=[ML]/[M][L]
[2] = cited from earlier work; for LogK, Zn: Table 1, K=[ML]/[M][L]
[3] = cited from earlier work; for LogK, Fe: Table 1, K=[ML]/[M][L]
[4] = cited from earlier work; for LogK, Al: Table 1, K=[ML]/[M][L]
[5] = cited from earlier work; for LogK, Ca: Table 1, K=[ML]/[M][L]
[6] = cited from earlier work; for LogK, Co: Table 1, K=[ML]/[M][L]
[7] = cited from earlier work; for LogK, Cu: K=[ML]/[M][L]
[8] = test system: Aβ deposits of AD-affected brain; assay: Extraction (solubilization) of Aβ from post-mortem AD brain tissue homogenates, western blot densitometry; format: biochemical, human
Experimental: Identical regions of frontal cortex (0.5 g) from post-mortem brains of individuals with AD, as well as non-AD conditions, were homogenized in TBS, […] ±metal chelators.
0.5 g of prefrontal cortex was dissected and homogenized in PBS ±chelator as indicated. The homogenate was then centrifuged (100,000 g) and the supernatant removed, and a sample taken for western blot assay using anti-Aβ specific antibodies after Tricine PAGE. Densitometry was performed against synthetic peptide standards.
Densitometry of Aβ western blots (FIGS. 19A-19C) was performed for a series of 6 AD brain samples homogenized in the presence of chelators as indicated.
Next the ability of clioquinol to extract Aβ deposits from human brain was examined. […] Fragments of prefrontal cortex from individual post-mortem samples with the histopathological diagnosis of AD were homogenized in PBS, pH 7.4, and then pelleted after centrifugation. The pellets were then washed with agitation twice for 30 minutes, 4° C., with PBS or PBS containing clioquinol (100% =0.8 μM clioquinol). The suspension was then pelleted (10,000 g for 30 minutes) and the supernatant removed (S1) for western blot analysis using Aβ-specific antibodies (illustrated). The pellet was treated a second time in this experiment with agitation and centrifugation, and the second supernatant (S2) analysed.
Soluble Aβ (ng/g tissue) was determined as described. Total Aβ was determined following formic acid extraction of otherwise untreated tissue.
Suitable quantities of gray matter from each subject were minced to serve as pools of homogenous tissue. […] To obtain the soluble fraction, the homogenates were centrifuged at 100,000× g for 30 min (Beckman J180, Beckman instruments, Fullerton, California) and the supernatant collected in 1 ml aliquots and stored on ice or immediately frozen at −70° C. In each experiment, all protein was precipitated from 1 ml of supernatant from each treatment group using 1:5 ice cold 10% trichloracetic acid and pelleted in a bench top microfuge (Heraeus, Osteroder, Germany) at 10,000× g. The remaining pellet was frozen at −70° C.
Precipitated protein was subjected to SDS polyacrylamide gel electrophoresis (SDS-PAGE) on Novex pre-cast 10-20% Tris-Tricine gels followed by Western transfer onto 0.2 μm nitrocellulose membrane (Biorad, Hercules, Calif.). […] Each gel included two or more lanes containing known quantities of synthetic Aβ which served as internal reference standards. Blot images were captured by a Relisys scanner with transparency adapter (Teco Information Systems, Taiwan, ROC) and densitometry conducted using the NIH Image 1.6 program (National Institutes for Health, USA. Modified for PC by Scion Corporation, Frederick, Md.), calibrated using a step diffusion chart. For quantitation of Aβ in brain extracts, the internal reference standards of synthetic Aβ were utilized to produce standard curves from which values were interpolated.

[9] = Residual metals in post-centrifugation pellets of brain homogenates (ICP-AES); format: biochemical, human; conditions: Table 6

c1ccc(-c2ccnc3c2ccc2c(-c4ccccc4)ccnc23)cc1 [Bathophenanthroline]
LogK, Mg [1]: 0 | LogK, Zn [2]: 6.9 | LogK, Fe [3]: 5.6 | LogK, Al [4]: 0 | LogK, Ca [5]: 0 | LogK, Co [6]: 0 | LogK, Cu ([7]; Table 1): 8.8

O=C(O)CN(CCN(CC(=O)O)CC(=O)O)CCN(CC(=O)O)CC(=O)O [DTPA, diethylenetriaminopenta acetic acid]
log stability constant ([7]; FIG. 34C legend, metal not given, Cu^2+ implied): 21.1

O=C(O)CN(CCOCCOCCN(CC(=O)O)CC(=O)O)CC(=O)O [EGTA]
LogK, Mg [1]: 5.3 | Stability constant logK10, Mg ([1]; Table 5, NIST database): 5.28 | LogK, Zn [2]: 12.6 | Stability constant logK10, Zn ([2]; Table 5, NIST database): 12.6 | Effect of Chelators upon extraction of Aβ (% change from control) ([8]; 0.1 mM chelator, mean n = 6 AD brain samples, above PBS extraction alone): 207% | Effect of Chelators upon extraction of Aβ (% change from control) ([8]; 2.0 mM chelator, mean n = 6 AD brain samples, above PBS extraction alone): 46% | Aβ signal versus PBS control ([8]; EGTA 2 mM): virtually abolished the signal for Aβ; also recorded: diminution in Aβ signal | efficiency in extracting Aβ ([8]; neutral saline buffer, TPEN 5 μM): less efficient | LogK, Fe [3]: 11.8 | Stability constant logK10, Fe ([3]; Table 5, NIST database): 11.8 | LogK, Al [4]: 13.9 | Stability constant logK10, Al ([4]; Table 5, NIST database): 13.9 | LogK, Ca [5]: 10.9 | Stability constant logK10, Ca ([5]; Table 5, NIST database): 10.86 | LogK, Co [6]: 12.4 | Stability constant logK10, Co ([6]; Table 5, NIST database): 12.35 | Residual Al in extracted pellet ([9]; chelator 0.001 mM): 43 mg/kg | Residual Ca in extracted pellet ([9]; chelator 0.001 mM): 862 mg/kg | Residual Cu in extracted pellet ([9]; chelator 0.001 mM): 12 mg/kg | Residual Fe in extracted pellet ([9]; chelator 0.001 mM): 281 mg/kg | Residual Mg in extracted pellet ([9]; chelator 0.001 mM): 237 mg/kg | Residual Zn in extracted pellet ([9]; chelator 0.001 mM): 49 mg/kg | Residual Al in extracted pellet ([9]; chelator 0.004 mM): 73 mg/kg | Residual Ca in extracted pellet ([9]; chelator 0.004 mM): 795 mg/kg | Residual Cu in extracted pellet ([9]; chelator 0.004 mM): 11 mg/kg | Residual Fe in extracted pellet ([9]; chelator 0.004 mM): 247 mg/kg | Residual Mg in extracted pellet ([9]; chelator 0.004 mM): 228 mg/kg | Residual Zn in extracted pellet ([9]; chelator 0.004 mM): 53 mg/kg | Residual Al in extracted pellet ([9]; chelator 0.01 mM): 61 mg/kg | Residual Ca in extracted pellet ([9]; chelator 0.01 mM): 675 mg/kg | Residual Cu in extracted pellet ([9]; chelator 0.01 mM): 13 mg/kg | Residual Fe in extracted pellet ([9]; chelator 0.01 mM): 272 mg/kg | Residual Mg in extracted pellet ([9]; chelator 0.01 mM): 213 mg/kg | Residual Zn in extracted pellet ([9]; chelator 0.01 mM): 54 mg/kg | Residual Al in extracted pellet ([9]; chelator 0.04 mM): 104 mg/kg | Residual Ca in extracted pellet ([9]; chelator 0.04 mM): 1402 mg/kg | Residual Cu in extracted pellet ([9]; chelator 0.04 mM): 13 mg/kg | Residual Fe in extracted pellet ([9]; chelator 0.04 mM): 438 mg/kg | Residual Mg in extracted pellet ([9]; chelator 0.04 mM): 247 mg/kg | Residual Zn in extracted pellet ([9]; chelator 0.04 mM): 71 mg/kg | Residual Al in extracted pellet ([9]; chelator 2.0 mM): 62 mg/kg | Residual Ca in extracted pellet ([9]; chelator 2.0 mM): 519 mg/kg | Residual Cu in extracted pellet ([9]; chelator 2.0 mM): 13 mg/kg | Residual Fe in extracted pellet ([9]; chelator 2.0 mM): 238 mg/kg | Residual Mg in extracted pellet ([9]; chelator 2.0 mM): 191 mg/kg | Residual Zn in extracted pellet ([9]; chelator 2.0 mM): 27 mg/kg | Residual Al in extracted pellet ([9]; chelator 5.0 mM): 27 mg/kg | Residual Ca in extracted pellet ([9]; chelator 5.0 mM): 455 mg/kg | Residual Cu in extracted pellet ([9]; chelator 5.0 mM): 12 mg/kg | Residual Fe in extracted pellet ([9]; chelator 5.0 mM): 230 mg/kg | Residual Mg in extracted pellet ([9]; chelator 5.0 mM): 168 mg/kg | Residual Zn in extracted pellet ([9]; chelator 5.0 mM): 18 mg/kg | LogK, Cu ([7]; Table 1): 17.6 | Stability constant logK10, Cu ([7]; Table 5, NIST database): 17.57

CC(C)(S)[C@@H](N)C(=O)O [Penicillamine]
LogK, Mg [1]: 0 | LogK, Zn [2]: 10.2 | LogK, Fe [3]: 0 | LogK, Al [4]: 0 | LogK, Ca [5]: 0 | LogK, Co [6]: 0 | LogK, Cu ([7]; Table 1): 18.2

bathocuproinedisulfonic acid [BC]
LogK, Mg [1]: 0 | LogK, Zn [2]: 4.1 | Effect of Chelators upon extraction of Aβ (% change from control) [8]: 301% and 400% | efficiency in extracting Aβ [8]: highly efficient | LogK, Fe [3]: 0 | LogK, Al [4]: 0 | LogK, Ca [5]: 0 | LogK, Co [6]: 4.2 | LogK, Cu (Cu^+) ([7]; Table 1, value for Cu^+): 19.1

From patent US20020082273A1, “Agents for use in the treatment of alzheimer's disease” (priority 1998, published 2002)
